Assay results taken from patent publication EP4745135A1 (Gluetacs Therapeutics (Shanghai) Co., Ltd., priority 2023, dated 2025).

Tests used:
CK1α = molecular target: T1, CK1α (Homo sapiens, UniProt P48729+Q96SW2); assay: Western blot, degradation of substrate protein in hPBMCs; assay type: cell-based; details: Western blot, 24 hours of compound treatment, compounds tested at 50 nM and 500 nM (concentration for the table not stated)
T1 construct: effects of the compounds of the present disclosure on the expression of target proteins in cells; endogenous in cells; host or cells: human PBMCs (Milecell Biotechnologies)

IKZF3 = molecular target: T2, IKZF3 (Homo sapiens, UniProt Q96SW2+Q9UKT9); assay: as above; assay type: cell-based; details: Western blot, 24 hours of compound treatment, compounds tested at 50 nM and 500 nM (concentration for the table not stated)
T2 construct: effects of the compounds of the present disclosure on the expression of target proteins in cells; endogenous in cells; host or cells: human PBMCs (Milecell Biotechnologies)

IKZF1 = molecular target: T3, IKZF1 (Homo sapiens, UniProt Q13422+Q96SW2); assay: as above; assay type: cell-based; details: Western blot, 24 hours of compound treatment, compounds tested at 50 nM and 500 nM (concentration for the table not stated)
T3 construct: effects of the compounds of the present disclosure on the expression of target proteins in cells; endogenous in cells; host or cells: human PBMCs (Milecell Biotechnologies)

IKZF2 = molecular target: T4, IKZF2 (Homo sapiens, UniProt Q96SW2+Q9UKS7); assay: as above; assay type: cell-based; details: Western blot, 24 hours of compound treatment, compounds tested at 50 nM and 500 nM (concentration for the table not stated)
T4 construct: effects of the compounds of the present disclosure on the expression of target proteins in cells; endogenous in cells; host or cells: human PBMCs (Milecell Biotechnologies)

WEE1 = molecular target: T5, WEE1 (Homo sapiens, UniProt P30291+Q96SW2); assay: as above; assay type: cell-based; details: Western blot, 24 hours of compound treatment, compounds tested at 50 nM and 500 nM (concentration for the table not stated)
T5 construct: effects of the compounds of the present disclosure on the expression of target proteins in cells; endogenous in cells; host or cells: human PBMCs (Milecell Biotechnologies)

[1] = tested on: Human T lymphocytic leukemia cell line: Jurkat; assay: Tumor cell proliferation inhibition (CellTiter-Meiluncell luminescent cell viability assay); details: 96 h; for inhibition at 0.01 µM: read-out: Inhibition Rate at 10 nM (%); for inhibition at 0.5 µM: read-out: Inhibition Rate at 500 nM (%)
GSPT1 = assay: Western blot, degradation of substrate protein in hPBMCs; assay type: cell-based, Human; details: Western blot, 24 hours of compound treatment, compounds tested at 50 nM and 500 nM (concentration for the table not stated)
[2] = molecular target: T6, human Cereblon WT GST-tagged protein (Homo sapiens, UniProt Q96SW2); assay: CRBN-binding affinity, HTRF (CEREBLON BINDING kit); details: for inhibition at 0.5 µM: read-out: Inhibition Rate at 0.5 µM (%); for inhibition at 2 µM: read-out: Inhibition Rate at 2 µM (%)
T6 construct: purchased CISBIO 64BDCRBNPEH

[3] = tested on: Human acute myeloid leukemia cell line: Kasumi-1; assay: Tumor cell proliferation inhibition (CellTiter-Meiluncell luminescent cell viability assay); details: Kasumi 1, 96 h; for inhibition at 0.01 µM: read-out: Inhibition Rate at 10 nM (%); for inhibition at 0.5 µM: read-out: Inhibition Rate at 500 nM (%)
[4] = tested on: Human myeloid monocytic leukemia cell (MV-4-11); assay: as above; details: MV4-11, 96 h; for inhibition at 0.01 µM: read-out: Inhibition Rate at 10 nM (%); for inhibition at 0.5 µM: read-out: Inhibition Rate at 500 nM (%)

T2 sequence (Q9UKT9 whole entry): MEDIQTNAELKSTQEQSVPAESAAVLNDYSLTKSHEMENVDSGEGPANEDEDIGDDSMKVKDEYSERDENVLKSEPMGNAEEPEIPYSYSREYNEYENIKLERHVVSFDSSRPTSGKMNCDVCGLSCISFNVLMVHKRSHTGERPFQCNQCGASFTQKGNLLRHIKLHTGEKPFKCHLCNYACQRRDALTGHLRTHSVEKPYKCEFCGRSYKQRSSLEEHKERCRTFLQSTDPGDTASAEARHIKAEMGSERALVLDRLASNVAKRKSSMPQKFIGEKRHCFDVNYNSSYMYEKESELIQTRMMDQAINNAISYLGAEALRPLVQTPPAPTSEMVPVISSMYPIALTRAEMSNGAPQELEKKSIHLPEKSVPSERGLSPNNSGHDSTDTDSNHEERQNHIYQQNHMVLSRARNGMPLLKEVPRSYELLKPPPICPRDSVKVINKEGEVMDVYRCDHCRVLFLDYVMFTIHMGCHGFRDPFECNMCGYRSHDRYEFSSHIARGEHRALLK
T2 sequence (Q96SW2 whole entry): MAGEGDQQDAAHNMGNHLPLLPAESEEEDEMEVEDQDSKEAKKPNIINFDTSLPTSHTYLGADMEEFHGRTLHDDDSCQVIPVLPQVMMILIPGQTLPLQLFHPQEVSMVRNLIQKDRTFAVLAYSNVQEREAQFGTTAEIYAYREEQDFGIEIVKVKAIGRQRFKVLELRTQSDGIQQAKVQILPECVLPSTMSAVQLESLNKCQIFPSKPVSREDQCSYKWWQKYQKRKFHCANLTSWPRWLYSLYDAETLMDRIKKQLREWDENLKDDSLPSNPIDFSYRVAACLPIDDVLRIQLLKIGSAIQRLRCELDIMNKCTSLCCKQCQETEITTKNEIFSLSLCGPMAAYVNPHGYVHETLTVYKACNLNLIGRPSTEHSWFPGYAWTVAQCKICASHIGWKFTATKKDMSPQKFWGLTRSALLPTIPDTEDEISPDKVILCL
T2 sequence (Q16531 whole entry partner): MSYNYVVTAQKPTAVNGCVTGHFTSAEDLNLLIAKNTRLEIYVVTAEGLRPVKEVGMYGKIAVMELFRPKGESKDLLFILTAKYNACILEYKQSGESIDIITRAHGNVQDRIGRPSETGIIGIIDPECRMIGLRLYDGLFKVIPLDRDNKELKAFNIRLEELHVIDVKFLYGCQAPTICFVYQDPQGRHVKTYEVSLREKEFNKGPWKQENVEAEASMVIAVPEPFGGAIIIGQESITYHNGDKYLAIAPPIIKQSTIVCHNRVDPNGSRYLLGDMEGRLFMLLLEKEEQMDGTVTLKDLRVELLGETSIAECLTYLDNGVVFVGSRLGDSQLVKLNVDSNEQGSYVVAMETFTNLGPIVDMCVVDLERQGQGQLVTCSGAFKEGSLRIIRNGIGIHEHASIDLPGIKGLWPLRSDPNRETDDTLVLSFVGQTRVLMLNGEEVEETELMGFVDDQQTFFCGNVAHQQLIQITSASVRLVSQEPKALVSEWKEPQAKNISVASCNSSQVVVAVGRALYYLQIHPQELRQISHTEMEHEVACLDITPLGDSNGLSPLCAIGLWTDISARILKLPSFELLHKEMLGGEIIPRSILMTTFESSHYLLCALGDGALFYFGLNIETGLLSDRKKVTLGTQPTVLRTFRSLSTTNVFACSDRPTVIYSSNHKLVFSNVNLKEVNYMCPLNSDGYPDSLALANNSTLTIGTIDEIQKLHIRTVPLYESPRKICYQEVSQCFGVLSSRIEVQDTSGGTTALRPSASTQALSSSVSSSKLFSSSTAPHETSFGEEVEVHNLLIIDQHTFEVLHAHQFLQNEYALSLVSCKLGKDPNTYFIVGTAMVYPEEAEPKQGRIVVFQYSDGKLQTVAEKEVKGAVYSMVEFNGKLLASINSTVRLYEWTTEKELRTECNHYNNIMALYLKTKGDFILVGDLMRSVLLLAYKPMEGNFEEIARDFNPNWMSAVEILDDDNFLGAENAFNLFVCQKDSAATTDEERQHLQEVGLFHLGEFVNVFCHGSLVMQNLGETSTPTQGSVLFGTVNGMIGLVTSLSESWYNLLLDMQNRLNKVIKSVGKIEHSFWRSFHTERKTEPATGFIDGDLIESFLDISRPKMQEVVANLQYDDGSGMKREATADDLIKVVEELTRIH
T4 sequence (Q9UKS7 whole entry): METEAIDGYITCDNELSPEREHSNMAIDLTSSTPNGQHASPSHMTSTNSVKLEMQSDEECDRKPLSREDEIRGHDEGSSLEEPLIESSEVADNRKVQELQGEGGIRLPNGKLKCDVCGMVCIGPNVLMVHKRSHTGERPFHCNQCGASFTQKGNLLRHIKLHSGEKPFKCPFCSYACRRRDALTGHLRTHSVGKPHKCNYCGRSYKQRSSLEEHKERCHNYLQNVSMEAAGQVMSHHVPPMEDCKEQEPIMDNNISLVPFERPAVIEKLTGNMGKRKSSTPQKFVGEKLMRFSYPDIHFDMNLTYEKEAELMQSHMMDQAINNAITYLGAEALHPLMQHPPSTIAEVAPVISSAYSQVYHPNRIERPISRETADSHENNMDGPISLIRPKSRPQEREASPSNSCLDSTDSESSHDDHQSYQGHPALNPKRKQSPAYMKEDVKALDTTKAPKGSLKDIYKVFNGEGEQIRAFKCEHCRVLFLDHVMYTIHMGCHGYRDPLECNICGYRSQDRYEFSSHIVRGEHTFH
T4 sequence (Q96SW2 whole entry): as the sequence (Q96SW2 whole entry) above
T4 sequence (Q16531 whole entry partner): as the sequence (Q16531 whole entry partner) above
T5 sequence (P30291 whole entry): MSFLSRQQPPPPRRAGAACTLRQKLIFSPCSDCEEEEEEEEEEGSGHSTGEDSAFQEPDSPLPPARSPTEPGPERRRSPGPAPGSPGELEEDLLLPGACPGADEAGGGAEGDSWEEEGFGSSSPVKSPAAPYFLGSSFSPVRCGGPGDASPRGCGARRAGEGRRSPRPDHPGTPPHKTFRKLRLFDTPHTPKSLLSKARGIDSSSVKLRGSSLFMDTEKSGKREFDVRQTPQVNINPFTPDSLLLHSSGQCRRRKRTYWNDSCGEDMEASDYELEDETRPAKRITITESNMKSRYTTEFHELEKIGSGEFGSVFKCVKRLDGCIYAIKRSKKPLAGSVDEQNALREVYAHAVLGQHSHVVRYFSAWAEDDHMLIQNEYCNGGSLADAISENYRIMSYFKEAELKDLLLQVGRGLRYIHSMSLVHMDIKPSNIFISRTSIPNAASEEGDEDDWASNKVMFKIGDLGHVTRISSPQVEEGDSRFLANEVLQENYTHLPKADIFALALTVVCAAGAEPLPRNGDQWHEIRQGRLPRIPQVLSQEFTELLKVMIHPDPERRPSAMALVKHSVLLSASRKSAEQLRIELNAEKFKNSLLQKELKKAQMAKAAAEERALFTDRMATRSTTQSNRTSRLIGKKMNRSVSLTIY
T5 sequence (Q96SW2 whole entry): as the sequence (Q96SW2 whole entry) above
T5 sequence (Q16531 whole entry partner): as the sequence (Q16531 whole entry partner) above
T6 sequence (Q96SW2 whole entry): as the sequence (Q96SW2 whole entry) above
T3 sequence (Q13422 whole entry): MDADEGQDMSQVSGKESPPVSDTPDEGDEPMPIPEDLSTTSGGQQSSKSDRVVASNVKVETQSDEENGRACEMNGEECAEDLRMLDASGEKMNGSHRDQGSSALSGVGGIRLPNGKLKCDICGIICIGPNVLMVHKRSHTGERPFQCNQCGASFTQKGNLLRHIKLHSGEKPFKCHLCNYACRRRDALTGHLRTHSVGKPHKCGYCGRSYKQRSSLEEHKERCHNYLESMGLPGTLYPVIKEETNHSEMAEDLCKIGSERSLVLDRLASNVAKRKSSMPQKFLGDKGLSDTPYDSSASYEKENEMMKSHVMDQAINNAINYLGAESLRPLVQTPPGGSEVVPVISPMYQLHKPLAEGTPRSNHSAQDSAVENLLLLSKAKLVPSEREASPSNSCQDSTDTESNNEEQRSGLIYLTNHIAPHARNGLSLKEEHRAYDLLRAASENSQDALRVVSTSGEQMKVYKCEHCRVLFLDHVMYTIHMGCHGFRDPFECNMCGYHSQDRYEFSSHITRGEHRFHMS
T3 sequence (Q96SW2 whole entry): as the sequence (Q96SW2 whole entry) above
T3 sequence (Q16531 whole entry partner): as the sequence (Q16531 whole entry partner) above
T1 sequence (P48729 whole entry): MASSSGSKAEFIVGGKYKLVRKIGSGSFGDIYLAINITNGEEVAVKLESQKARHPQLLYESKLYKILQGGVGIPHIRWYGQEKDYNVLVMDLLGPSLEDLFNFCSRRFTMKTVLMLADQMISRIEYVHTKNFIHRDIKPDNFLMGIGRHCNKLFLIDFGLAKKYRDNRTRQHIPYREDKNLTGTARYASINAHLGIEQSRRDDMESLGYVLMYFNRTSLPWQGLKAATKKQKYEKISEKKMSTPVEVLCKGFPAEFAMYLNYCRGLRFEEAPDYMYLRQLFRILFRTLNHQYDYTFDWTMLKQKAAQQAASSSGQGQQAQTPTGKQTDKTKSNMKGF
T1 sequence (Q96SW2 whole entry): as the sequence (Q96SW2 whole entry) above
T1 sequence (Q16531 whole entry partner): as the sequence (Q16531 whole entry partner) above

Q: For `O=C1CCC(N2Cc3cc(CN4CCN(c5cccc(Cl)c5Cl)CC4)ccc3C2=S)C(=O)N1` (stereo not drawn) [GT-04474, 3-(5-((4-(2,3-dichlorophenyl)piperazin-1-yl)methyl)-1-thioxoisoindolin-2-yl)piperidine-2,6-dione], which “CK1α substrate protein remaining %” value (CK1α) is on record?
A: B (80%< substrate protein remaining %≤ 100%)

Q: What about the “IKZF3 substrate protein remaining %” value (IKZF3) of the same molecule?
A: A (0% ≤ substrate protein remaining % ≤ 80%)

Q: What about the “IKZF 1 substrate protein remaining %” value (IKZF1) of the same molecule?
A: A (0% ≤ substrate protein remaining % ≤ 80%)

Q: And the “IKZF2 substrate protein remaining %” value (IKZF2)?
A: A (0% ≤ substrate protein remaining % ≤ 80%)

Q: And the “Wee1 substrate protein remaining %” value (WEE1)?
A: A (0% ≤ substrate protein remaining % ≤ 80%)

Q: And the IC50 ([1]; read-out: Inhibitory activity (IC50, nM) on tumor cell proliferation, Jurkat)?
A: 50 to 100 nM

Q: What about the “GSPT1 substrate protein remaining %” value (GSPT1) of the same molecule?
A: A (0% ≤ substrate protein remaining % ≤ 80%)

Q: And the IC50 ([2]; CRBN binding, HTRF, 3 hours at room temperature, read-out: HTRF IC50)?
A: 0.5 to 1 µM

Q: What does the source list for `O=C1CCC(N2Cc3c(CN4CCN(c5cccc(F)c5)CC4)cccc3C2=S)C(=O)N1` (stereo not drawn) [GT-08263, 3-(4-((4-(3-fluorophenyl)piperazin-1-yl)methyl)-1-thioxoisoindolin-2-yl)piperidine-2,6-dione]?
A: CK1α substrate protein remaining % (CK1α): A (0% ≤ substrate protein remaining % ≤ 80%); IKZF3 substrate protein remaining % (IKZF3): B (80%< substrate protein remaining %≤ 100%); IKZF 1 substrate protein remaining % (IKZF1): B (80%< substrate protein remaining %≤ 100%); IKZF2 substrate protein remaining % (IKZF2): B (80%< substrate protein remaining %≤ 100%); Wee1 substrate protein remaining % (WEE1): A (0% ≤ substrate protein remaining % ≤ 80%); inhibition at 0.01 µM [1]: 20 to 30%; inhibition at 0.5 µM [1]: 30 to 40%; GSPT1 substrate protein remaining % (GSPT1): A (0% ≤ substrate protein remaining % ≤ 80%); inhibition at 0.01 µM [3]: 50 to 60%; inhibition at 0.5 µM [3]: 60 to 70%; inhibition at 0.5 µM [2]: 53 to 60%; inhibition at 2 µM [2]: 80 to 100%; inhibition at 0.01 µM [4]: 60 to 80%; inhibition at 0.5 µM [4]: 80 to 100%

Q: Which “CK1α substrate protein remaining %” value (CK1α) does the source give for `O=C1CCC(N2Cc3c(CN4CC=C(c5cccc(F)c5Cl)CC4)cccc3C2=S)C(=O)N1` (stereo not drawn) [GT-08301, 3-(4-((4-(2-chloro-3-fluorophenyl)-3,6-dihydropyridin-1(2H)-yl)methyl)-1-thioxoisoindolin-2-yl)piperidine-2,6-dione] here?
A: A (0% ≤ substrate protein remaining % ≤ 80%)

Q: And the “IKZF3 substrate protein remaining %” value (IKZF3)?
A: B (80%< substrate protein remaining %≤ 100%)

Q: And the “IKZF 1 substrate protein remaining %” value (IKZF1)?
A: B (80%< substrate protein remaining %≤ 100%)

Q: And the “IKZF2 substrate protein remaining %” value (IKZF2)?
A: B (80%< substrate protein remaining %≤ 100%)

Q: What about the “Wee1 substrate protein remaining %” value (WEE1) of the same molecule?
A: A (0% ≤ substrate protein remaining % ≤ 80%)

Q: What about the inhibition at 0.01 µM [1] of the same molecule?
A: 20 to 30%

Q: What about the inhibition at 0.5 µM [1] of the same molecule?
A: 30 to 40%

Q: What about the “GSPT1 substrate protein remaining %” value (GSPT1) of the same molecule?
A: A (0% ≤ substrate protein remaining % ≤ 80%)

Q: And the inhibition at 0.01 µM [3]?
A: 50 to 60%

Q: And the inhibition at 0.5 µM [3]?
A: 50 to 60%

Q: And the inhibition at 0.01 µM [4]?
A: 40 to 60%

Q: What about the inhibition at 0.5 µM [4] of the same molecule?
A: 40 to 60%

Q: With `CC1(C)CCC(CN2CC3CCC(C2)N3Cc2cccc3c2CN(C2CCC(=O)NC2=O)C3=S)=C(c2ccc(Cl)cc2)C1` (stereo not drawn) [GT-08292, 3-(4-((3-((4'-chloro-5,5-dimethyl-3,4,5,6-tetrahydro-[1,1'-biphenyl]-2-yl)methyl)-3,8-diazabicyclo[3.2.1]octan-8-yl)methyl)-1-thioxoisoindolin-2-yl)piperidine-2,6-dione] as the molecule, how does the “CK1α substrate protein remaining %” value (CK1α) read?
A: A (0% ≤ substrate protein remaining % ≤ 80%)

Q: What about the “IKZF3 substrate protein remaining %” value (IKZF3) of the same molecule?
A: B (80%< substrate protein remaining %≤ 100%)

Q: What about the “IKZF 1 substrate protein remaining %” value (IKZF1) of the same molecule?
A: B (80%< substrate protein remaining %≤ 100%)

Q: What about the “IKZF2 substrate protein remaining %” value (IKZF2) of the same molecule?
A: B (80%< substrate protein remaining %≤ 100%)

Q: And the “Wee1 substrate protein remaining %” value (WEE1)?
A: A (0% ≤ substrate protein remaining % ≤ 80%)

Q: And the inhibition at 0.01 µM [1]?
A: 30 to 40%

Q: What about the inhibition at 0.5 µM [1] of the same molecule?
A: 30 to 40%

Q: And the “GSPT1 substrate protein remaining %” value (GSPT1)?
A: A (0% ≤ substrate protein remaining % ≤ 80%)

Q: What about the inhibition at 0.01 µM [3] of the same molecule?
A: 60 to 70%

Q: What about the inhibition at 0.5 µM [3] of the same molecule?
A: 50 to 60%

Q: And the inhibition at 0.5 µM [2]?
A: 30 to 40%

Q: What about the inhibition at 2 µM [2] of the same molecule?
A: 60 to 80%

Q: And the inhibition at 0.01 µM [4]?
A: 60 to 80%

Q: What about the inhibition at 0.5 µM [4] of the same molecule?
A: 60 to 80%
